Reference: PubChem BioAssay (NCI)
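Where inhibition never reached the appropriate level, the endpoint shown equals the highest concentration tested. Otherwise, values were interpolated linearly from a five-concentration, 48-hour dose response in 96-well plates. TGI is the concentration that stops growth completely.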

Columns and labels:
Experiment in all cases: DTP human tumour cell line panel, 48 h
[1] = system: SK-OV-3 ovarian
[2] = system: OVCAR-5 ovarian
[3] = system: NCI-H23 lung
[4] = system: HCT-15 colon
[5] = system: HCC-2998 colon
[6] = system: SF-268 CNS
[7] = system: LOX IMVI melanoma
[8] = system: SK-MEL-5 melanoma
[9] = system: SN12C renal
[10] = system: UO-31 renal

Row | Compound | TGI [1] [µM] | TGI [2] [µM] | TGI [3] [µM] | TGI [4] [µM] | TGI [5] [µM] | TGI [6] [µM] | TGI [7] [µM] | TGI [8] [µM] | TGI [9] [µM] | TGI [10] [µM]
1 | COC(=O)[C@@]12CCCC(=O)[C@@H]1[C@H]1CCCC[C@H]12 | > 100 | > 100 | > 100 | > 100 | > 100 | > 100 | > 100 | > 100 | > 100 | > 100
2 | O=C(N[C@H]1c2ccsc2/C(=N/O)[C@H]1O)C(F)(F)F | > 100 | > 100 | > 100 | > 100 | > 100 | > 100 | > 100 | > 100 | > 100 | > 100
3 | O=C1C(Br)=C(c2ccccc2)S(=O)c2ccccc21 (stereo not given) | 32.9 | 41 | 39.7 | 14.1 | 27.9 | 36.5 | 28.2 | 24.7 | 31 | 27.2
4 | C[n+]1c2ccccc2c(C(=O)Nc2ccc(S(=O)(=O)N=C(N)N)cc2)c2ccccc21 | > 100 | > 100 | > 100 | > 100 | > 100 | > 100 | > 100 | > 100 | > 100 | > 100
5 | COc1ccc(OC)c2c1C1CCC(=O)N1CN2C(C)=O (stereo not given) | > 100 | > 100 | > 100 | > 100 | > 100 | > 100 | > 100 | > 100 | > 100 | > 100
6 | Cc1c(NC2(C)C(=O)N(/N=C/c3ccccc3)N=C2c2ccccc2)n[nH]c1-c1ccccc1 (stereo not given) | > 100 | > 100 | > 100 | > 100 | > 100 | > 100 | > 100 | > 100 | > 100 | > 100
7 | Cc1cc(C)n(CN(Cn2nc(C)cc2C)C2CCCCC2)n1 | > 100 | 53.8 | 56.8 | 42.6 | 27.9 | 91.3 | 46.3 | > 100 | 66.3 | 52.4
8 | COc1ccc2nc3cc(Cl)ccc3c(NCCNCCCNC(=O)c3cc(-c4ccccc4)nc4ccccc34)c2c1 | > 100 | > 100 | > 100 | > 100 | > 100 | > 100 | > 100 | > 100 | > 100 | > 100
9 | COC(=O)C1(Cc2ccccc2)Cc2ccccc2C1 | > 100 | > 100 | > 100 | > 100 | 98.2 | > 100 | 88 | 31.9 | > 100 | 55.9
10 | CC(C)CNC(=O)Cn1c(-c2ccccc2)cc2ccccc21 | > 100 | > 100 | > 100 | > 100 | > 100 | > 100 | > 100 | > 100 | > 100 | > 100
11 | COc1cc(C2SCC(=O)N2c2ccc(Oc3ccc(Cl)cc3)c(Cl)c2)cc(OC)c1OC (stereo not given) | 33.6 | 55.7 | > 100 | > 100 | > 100 | 31 | 36.8 | 32.1 | 56.2 | 91.3
12 | CC(=O)Oc1ccc(C2COc3cc(OC(C)=O)c(OC(C)=O)cc3C2)cc1 (stereo not given) | 38.7 | > 97.1 | 37.7 | 40.8 | 46.8 | 51.6 | > 55.5 | 6.63 | 52 | 59.4
13 | O=c1[nH]nc(Cc2ccccc2)n1-n1cnnc1 | > 100 | > 100 | > 100 | > 100 | > 100 | > 100 | > 100 | > 100 | > 100 | > 100
14 | CC(=O)O[C@H]1C(=O)[C@@]2(C)[C@H]([C@H](OC(=O)c3ccccc3)[C@]3(O)C[C@H](OC(=O)[C@H](O)[C@@H](NC(=O)CC(C)(C)C)c4ccccc4)C(C)=C1C3(C)C)C1(OC(C)=O)CO[C@@H]1C[C@@H]2O (stereo not given in full) | > 10 | > 2.93 | > 10 | > 5.78 | 0.0418 | > 6.19 | > 10 | > 10 | > 10 | > 10
15 | CC(=O)N1CCN(C23OC4(N5CCN(C(C)=O)CC5)C5C6CC(C7C6C4C72)C53)CC1 (stereo not given) | > 100 | > 100 | > 100 | > 100 | > 100 | > 100 | > 100 | > 100 | > 100 | > 100
16 | C#CCn1c(=O)c(C#N)c(O)c2cc3ccccc3nc21 | > 100 | > 100 | > 100 | > 100 | > 100 | > 31.6 | > 100 | > 100 | > 100 | > 100
17 | CCc1c(C)c(C#N)c(=S)n(C2OC(CO)C(O)C(O)C2O)c1C (stereo not given) | > 100 | > 100 | > 100 | > 100 | > 100 | > 100 | > 100 | > 100 | > 100 | > 100

Row | Compound | TGI [1] [µM] | TGI [2] [µM] | TGI [3] [µM] | TGI [4] [µM] | TGI [5] [µM] | TGI [6] [µM] | TGI [7] [µM] | TGI [8] [µM] | TGI [9] [µM] | TGI [10] [µM]
18 | C=C(C)C1CC=C(C)C2(C1)OCC(C)(C)C(C)O2 (stereo not given) | 53.7 | 38.5 | 48.4 | 33.9 | 93.2 | 70.9 | 31.8 | 29.2 | 33.4 | 40.8
19 | CSC1=NS(=O)(=O)c2cc(C(=O)NN(C)C(=O)c3cc4c(cc3Cl)SC(SC)=NS4(=O)=O)c(Cl)cc2S1 | > 10 | > 10 | > 10 | > 10 | > 10 | > 10 | > 10 | > 10 | > 10 | > 10
20 | CC(C)OP(=O)(OC(C)C)C(C(C)C)N(C)/C(F)=N/C(F)(F)F (stereo not given) | > 100 | > 100 | > 100 | > 100 | > 100 | > 100 | > 100 | > 100 | > 100 | > 100
21 | CN(C)CCNc1ncnc2nc(-c3ccc4ccccc4c3)[nH]c12 | > 100 | > 100 | > 100 | > 100 | > 100 | > 100 | > 100 | > 100 | > 100 | > 100
22 | CC(=Nc1ccncc1)C(C)=Nc1ccncc1 | > 100 | 31.9 | 32.6 | 27.5 | 47.9 | > 100 | 42.1 | 47.1 | 30 | 30.8
23 | Cc1ccc(N=Nc2c(C)c(C#N)c(=S)n(C3OC(CO)C(O)C(O)C3O)c2-c2ccccc2)cc1 (stereo not given) | > 100 | 55.9 | 40.4 | 63.7 | > 100 | 68 | 31.2 | 23.2 | > 100 | 86.9
24 | Cc1cc(=O)oc2cc(O)ccc12 | > 100 | > 100 | > 100 | > 100 | > 100 | > 100 | > 100 | > 100 | > 100 | > 100
25 | [N-]=[N+]=Nc1ccc(CNc2cc(=O)[nH]c(=O)[nH]2)cc1 | > 100 | > 100 | > 100 | > 100 | > 100 | > 100 | > 100 | > 100 | > 100 | > 100
26 | CC(=O)OCC=C(CCl)CCC(Br)C(C)(C)Br (mixture of isomers) | > 10 | > 10 | > 10 | > 10 | > 10 | > 10 | > 10 | > 10 | > 10 | > 10
27 | CC1(COS(=O)(=O)OCC2(C)COS(=O)(=O)OC2)COS(=O)(=O)OC1 | > 100 | > 100 | > 89.4 | > 100 | > 100 | > 100 | > 77.9 | > 100 | > 32.1 | > 100
28 | Cc1c(-c2ccccc2)c(C#N)c2nnc(C(N)=O)c(N)n12 | > 100 | > 100 | > 100 | > 100 | > 100 | > 100 | > 100 | > 100 | > 100 | > 100
29 | COc1cc2c(cc1OC)-c1c3c(cc4c1[C@@H](C2)N(C)CC4)OCO3 | 50.6 | 37.3 | 26.1 | 40.8 | 23.8 | 38.2 | 75 | 19.3 | 39 | 49.3
30 | O=c1oc2ccc(Cl)cc2cc1-c1cn2cc(Cl)ccc2n1 | > 100 | > 100 | > 100 | > 100 | > 100 | > 100 | > 100 | > 100 | > 100 | > 100
31 | S=C(S)NCC1CCC(CNC(=S)S)CC1 (stereo not given) | > 100 | > 100 | > 100 | 65 | 48.3 | > 100 | 40.8 | > 100 | 44 | 47.5
32 | Cn1nc(S(N)(=O)=O)s/c1=N/C(N)=S | > 100 | > 100 | > 100 | > 100 | > 100 | > 100 | > 100 | > 100 | > 100 | > 100
33 | COc1cc2c(/C=C3/C(=O)N(c4ccccc4)c4ccccc43)c(Cl)[nH]c2cc1C | 4.78 | > 40.5 | 7.81 | 11.4 | 8.37 | > 53.8 | 10.2 | 8.35 | 6.29 | > 26.9
34 | O=c1[nH]c(Nc2cccc(Cl)c2)nc2nc[nH]c12 | > 100 | > 100 | > 100 | > 100 | > 100 | > 100 | > 100 | > 100 | > 100 | > 100
